Target: T1, HSA (Homo sapiens, UniProt P02768)
T1 construct: purchased Sigma-Aldrich
Experiment: Quenching of HSA intrinsic fluorescence by MCD, synchronous fluorescence scanning
Type: binding
Conditions: for decrease of the intensity of the SFS band of HSA, tyrosine: Δλ = 15 nm; for decrease of the intensity of the SFS band of HSA, tyrosine / decrease of the intensity of the SFS band of HSA, tryptophan: cMCD up to 5.3 × 10^−5 mol L^−1; for decrease of the intensity of the SFS band of HSA, tryptophan: Δλ = 60 nm
Experimental: In order to determine the binding sites of HSA when interacting with MCD and to evaluate possible changes in these sites, the fluorescence spectra of tyrosine and tryptophan groups of HSA in the presence of MCD were measured in the synchronous fluorescence scanning (SFS) mode. The positions of the SF spectra of protein amino acid residues depend on their microsolvation (micropolarity of the medium). Thus, SFS allows for obtaining data on the effect of complexation on the microenvironment of fluorophore groups of protein molecules.
Quenching of intrinsic HSA fluorescence was analyzed using the Stern–Volmer and Lehrer–Leavis relationships (see Equations (3) and (4)). The experimental dependences approximated by linear anamorphoses (R^2~0.9–0.98) were better in the coordinates of the Lehrer–Leavis model than in the Stern–Volmer model (the Stern–Volmer plots were nonlinear). The Lehrer–Leavis model assumes partial accessibility of HSA chromophores for quenching by MCD (the resulting quenching constants are shown in Table 6).
Absorption spectra were recorded on an SF-2000 spectrophotometer (Experimental-Construction Company “Spectrum”, St. Petersburg, Russia); fluorescence and fluorescence excitation spectra were recorded on a Fluorat-02-Panorama spectrofluorimeter (Group of Companies “Lumex”, St. Petersburg, Russia). The fluorescence and fluorescence excitation spectra were corrected for the spectral characteristics of the instrument (excitation channel signal) and sample transmission. Changes in the intrinsic fluorescence of HSA upon binding of MCD (in the presence of the dyes) were recorded in the synchronous fluorescence scanning (SFS) mode. In SFS mode, when registering spectra, a fixed difference Δλ= λfl − λex is maintained for the channels of excitation and registration. Synchronous scanning spectra were obtained at Δλ = 15 nm (fluorescence of tyrosine residues in the HSA molecule) and Δλ = 60 nm (fluorescence of tryptophan). The spectra were measured in 1 cm quartz semi-micro cells (Bio-Rad, Hercules, CA, USA).
The Stern–Volmer (Equation (3)) and Lehrer–Leavis (Equation (4)) dependences were used to analyze the results of measurements of HSA intrinsic fluorescence (synchronous scanning mode) in the presence of MCD [56, 57]. (3) I0/I=1 + KSV[Q] (4) I0/(I0−I)=1 /α+ 1/(αKSV[Q]) where I0 and I are the fluorescence intensities in the absence and in the presence of a quencher, respectively; [Q] is the quencher concentration; KSV is the Stern–Volmer quenching constant; and α is the proportion of fluorophores in the biomolecule available to the quencher in the Lehrer–Leavis model. […]
1. Spectral‐Fluorescent Titration
In experiments on spectral‐fluorescence titration, MCD 1–4 were dosed from their concentrated st ock solutions in EtOH. Microvolumes (~0.5–5 μL) were dosed into the measuring cell (dilution 1:500 – 1:1000).
In experiments with biomacromolecules, microvolumes of concentrated stock solutions of dsDNA, ssDNA and HSA were injected directly into the cells. Spectral‐fluorescent characteristics of MCD in complexes with biomacromolecules were studied by titration of dye solutions (cdye ~ 1 – 2 × 10–6 mol L–1) with increasing concentrations of biopolymers. Measurements of the intrinsic fluorescence of HSA in the presence of MCD were carried out at a constant concentration of HSA (cHSA ~ 2.0 × 10–5 mol L–1) by titration with increasing concentrations of dyes. After stirring, the absorption and fluorescence spectra of the dyes were recorded several times. Upon registration, the fluorescence and fl uorescence excitation spectra were corrected for the spectral characteristic of the excitation channel and for the absorption of […]
2. Fluorescence Quantum Yields
Determination of the fluorescence quantum yields of MCD 1–4 was performed using the standard […]

T1 sequence (P02768 25-609): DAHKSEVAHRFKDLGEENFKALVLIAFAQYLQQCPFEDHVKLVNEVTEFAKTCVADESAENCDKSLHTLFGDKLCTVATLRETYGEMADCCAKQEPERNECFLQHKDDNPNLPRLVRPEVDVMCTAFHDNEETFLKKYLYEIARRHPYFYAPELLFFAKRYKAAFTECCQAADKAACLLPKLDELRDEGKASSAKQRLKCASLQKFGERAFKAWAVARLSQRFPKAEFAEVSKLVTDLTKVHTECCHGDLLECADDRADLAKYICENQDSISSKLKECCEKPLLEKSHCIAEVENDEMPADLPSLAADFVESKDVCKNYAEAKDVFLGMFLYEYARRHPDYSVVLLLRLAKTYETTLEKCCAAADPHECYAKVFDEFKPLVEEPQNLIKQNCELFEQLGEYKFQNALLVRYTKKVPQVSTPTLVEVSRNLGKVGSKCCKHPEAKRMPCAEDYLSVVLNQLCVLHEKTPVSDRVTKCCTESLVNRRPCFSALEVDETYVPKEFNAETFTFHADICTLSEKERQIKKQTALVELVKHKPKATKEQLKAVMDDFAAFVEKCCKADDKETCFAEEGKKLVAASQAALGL

Row | Compound | KSV, Stern–Volmer quenching constant (Lehrer–Leavis model) (Trp, SFS Δλ = 60 nm) | α, proportion of fluorophores available to the quencher (Lehrer–Leavis model) (Trp, SFS Δλ = 60 nm) | KSV, Stern–Volmer quenching constant (Lehrer–Leavis model) (Tyr, SFS Δλ = 15 nm) | α, proportion of fluorophores available to the quencher (Lehrer–Leavis model) (Tyr, SFS Δλ = 15 nm) | decrease of the intensity of the SFS band of HSA, tyrosine | decrease of the intensity of the SFS band of HSA, tryptophan
1 | CC[N+](CC)(CC)CCC[n+]1ccc(/C=C2\Sc3ccccc3N2C)c2ccc(O)cc21 [MCD 1] | 40400 L/mol | 0.40 | 21800 L/mol | 0.61 | 31% | 26%
2 | CCN1/C(=C/c2sc3ccccc3[n+]2CC)Sc2ccccc21 [MCD 3] | 6.12e+07 L/mol | 0.82 | 112000 L/mol | 0.15 | 11% | 6%
3 | CCN1/C(=C/c2ccc3ccccc3[n+]2CC)C=Cc2ccccc21 [MCD 4] | 21000 L/mol | 0.60 | 38200 L/mol | 0.33 | 21% | 22%

Reference: paper PMC10531095, “Photonics of Some Monomethine Cyanine Dyes in Solutions and in Complexes with Biomolecules” (International Journal of Molecular Sciences, 2023)
